Reference: PubChem BioAssay (NCI)
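Following 48 hours of exposure in 96-well plates, responses at five concentrations were used to interpolate endpoints linearly. Definition used: TGI = concentration required for complete inhibition of growth.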

Tests used:
Test in all cases: NCI-60 cell line screen, 48 h
[1] = tested on: IGROV1 ovarian
[2] = tested on: HOP-62 NSCLC
[3] = tested on: SK-MEL-2 melanoma
[4] = tested on: OVCAR-5 ovarian
[5] = tested on: SK-MEL-28 melanoma
[6] = tested on: CCRF-CEM leukemia
[7] = tested on: A549 NSCLC
[8] = tested on: HL-60(TB) leukemia
[9] = tested on: RPMI-8226 leukemia
[10] = tested on: K-562 leukemia
[11] = tested on: SF-295 CNS
[12] = tested on: RXF 393 renal
[13] = tested on: A498 renal
[14] = tested on: MDA-MB-231 breast
[15] = tested on: KM12 colon
[16] = tested on: SN12C renal
[17] = tested on: MALME-3M melanoma
[18] = tested on: NCI/ADR-RES ovarian
[19] = tested on: LOX IMVI melanoma
[20] = tested on: HS 578T breast
[21] = tested on: EKVX NSCLC
[22] = tested on: UO-31 renal
[23] = tested on: HCT-116 colon
[24] = tested on: 786-0 renal
[25] = tested on: ACHN renal
[26] = tested on: MCF7 breast
[27] = tested on: MOLT-4 leukemia
[28] = tested on: SK-MEL-5 melanoma
[29] = tested on: HOP-92 NSCLC
[30] = tested on: T-47D breast
[31] = tested on: SK-OV-3 ovarian
[32] = tested on: SR leukemia
[33] = tested on: M14 melanoma
[34] = tested on: MDA-MB-435
[35] = tested on: OVCAR-3 ovarian
[36] = tested on: U251 CNS
[37] = tested on: HT29 colon
[38] = tested on: BT-549 breast
[39] = tested on: DU-145 prostate
[40] = tested on: COLO 205 colon
[41] = tested on: NCI-H522 lung
[42] = tested on: PC-3 prostate
[43] = tested on: UACC-257 melanoma
[44] = tested on: NCI-H226 lung
[45] = tested on: TK-10 renal
[46] = tested on: SF-268 CNS
[47] = tested on: HCT-15 colon
[48] = tested on: SF-539 CNS
[49] = tested on: OVCAR-4 ovarian
[50] = tested on: MDA-N
[51] = tested on: HCC-2998 colon
[52] = tested on: NCI-H460 lung
[53] = tested on: SNB-75 CNS
[54] = tested on: NCI-H23 lung
[55] = tested on: CAKI-1 renal
[56] = tested on: OVCAR-8 ovarian
[57] = tested on: SW-620 colon
[58] = tested on: UACC-62 melanoma
[59] = tested on: SNB-19 CNS

COc1ccc(/C=C2\N=C(N/N=C\C(O)C(O)C(O)C(O)CO)NC2=O)cc1 (stereo not given)
TGI [1]: > 100 µM
TGI [2]: 54.9 µM
TGI [3]: 36.6 µM
TGI [4]: > 100 µM
TGI [5]: > 100 µM
TGI [6]: > 100 µM
TGI [7]: > 100 µM
TGI [8]: > 100 µM
TGI [9]: > 100 µM
TGI [10]: > 100 µM
TGI [11]: > 100 µM
TGI [12]: > 100 µM
TGI [13]: 93 µM
TGI [14]: 88.5 µM
TGI [15]: > 100 µM
TGI [16]: 52.2 µM
TGI [17]: 43.4 µM
TGI [18]: > 100 µM
TGI [19]: > 100 µM
TGI [20]: 71.7 µM
TGI [21]: > 100 µM
TGI [22]: > 100 µM
TGI [23]: > 100 µM
TGI [24]: > 100 µM
TGI [25]: > 100 µM
TGI [26]: > 100 µM
TGI [27]: 62.3 µM
TGI [28]: > 100 µM
TGI [29]: 33.9 µM
TGI [30]: 27.7 µM
TGI [31]: 50.3 µM
TGI [32]: > 100 µM
TGI [33]: 35.7 µM
TGI [34]: 91.1 µM
TGI [35]: 33.7 µM
TGI [36]: 42.7 µM
TGI [37]: > 100 µM
TGI [38]: 50.6 µM
TGI [39]: > 100 µM
TGI [40]: > 100 µM
TGI [41]: 46 µM
TGI [42]: 69.5 µM
TGI [43]: > 100 µM
TGI [44]: > 100 µM
TGI [45]: > 100 µM
TGI [46]: 63.2 µM
TGI [47]: > 100 µM
TGI [48]: 38.5 µM
TGI [49]: 53 µM
TGI [50]: 39.6 µM
TGI [51]: > 100 µM
TGI [52]: > 100 µM
TGI [53]: 54.3 µM
TGI [54]: 54 µM
TGI [55]: > 100 µM
TGI [56]: 88.3 µM
TGI [57]: > 100 µM

COc1nc(N)c(N=O)c(OCc2ccccc2)n1
TGI [1]: > 10 µM
TGI [2]: > 10 µM
TGI [3]: > 10 µM
TGI [4]: > 10 µM
TGI [5]: > 10 µM
TGI [6]: 6.84 µM
TGI [7]: > 10 µM
TGI [8]: > 10 µM
TGI [9]: > 10 µM
TGI [10]: > 10 µM
TGI [11]: > 10 µM
TGI [12]: > 10 µM
TGI [13]: > 10 µM
TGI [14]: > 10 µM
TGI [15]: > 10 µM
TGI [16]: > 10 µM
TGI [17]: 5.97 µM
TGI [18]: > 10 µM
TGI [19]: > 10 µM
TGI [20]: > 10 µM
TGI [21]: > 10 µM
TGI [23]: > 10 µM
TGI [24]: > 10 µM
TGI [25]: > 10 µM
TGI [26]: > 10 µM
TGI [27]: > 10 µM
TGI [28]: > 10 µM
TGI [29]: > 10 µM
TGI [30]: 5.49 µM
TGI [31]: > 10 µM
TGI [32]: > 10 µM
TGI [33]: > 10 µM
TGI [34]: > 10 µM
TGI [35]: > 10 µM
TGI [58]: > 10 µM
TGI [36]: > 10 µM
TGI [37]: > 10 µM
TGI [38]: > 10 µM
TGI [39]: > 10 µM
TGI [40]: 2.37 µM
TGI [41]: 3.59 µM
TGI [42]: > 10 µM
TGI [43]: > 10 µM
TGI [44]: > 10 µM
TGI [45]: > 10 µM
TGI [46]: > 10 µM
TGI [47]: > 10 µM
TGI [48]: > 10 µM
TGI [59]: > 10 µM
TGI [49]: > 10 µM
TGI [50]: > 10 µM
TGI [51]: > 10 µM
TGI [52]: > 10 µM
TGI [53]: > 10 µM
TGI [54]: > 10 µM
TGI [55]: > 10 µM
TGI [56]: > 10 µM
TGI [57]: 4.35 µM
